Converted amounts (≈) assume the structure as drawn. Where two headings read alike, the source gives them in different places.
Tests used:
S. aureus Topo IV = target: T1, S. aureus Topo IV (Staphylococcus aureus, UniProt Q2FYS4); assay: biochemical; settings: for IC50: mean of two to four measurements, read-out: Topoisomerase IV IC50 S. aureus; for LE Topo IV S. aureus: LE = (1.37/HA) × pIC50
T1 construct: purchased Inspiralis (Norwich, UK)
Method: A Topo IV Relaxation High Throughput Plate assay kit, purchased from Inspiralis (Norwich. UK) was used to determine IC50 values of compounds on S. aureus and E. coli. […] Biotinylated oligonucleotide in wash buffer was immobilized onto the wells, and the excess oligonucleotide was washed off with wash buffer and ultrapure water. 1.5 U of S. aureus or E. coli […] enzyme was incubated together with 0.75 μg of supercoiled pNO1 plasmid as a substrate in the presence of 3 μL inhibitor solution in 10% DMSO and 0.008% Tween 20 at 37 °C for 30 min in a final reaction volume of 30 μL in dilution buffer (50 mM Tris-HCl (pH 7.5), 1 mM DTT, 1 mM EDTA, 40% (w/v) glycerol for S. aureus and 40 mM HEPES, KOH (pH 7.6), 100 mM potassium glutamate, 1 mM DTT, 1 mM EDTA, and 40% (v/v) glycerol for E. coli). The reactions were stopped by adding the TF buffer (50 mM NaOAc (pH 4.7), 50 mM NaCl, and 50 mM MgCl2) to allow the triplex formation (biotin-oligonucleotide-plasmid) for additional 30 min. Afterward, the unbound plasmid was washed off using TF buffer, and the solution of Promega Diamond dye in T10 buffer (10 mM Tris-HCl (pH 8.0), 1 mM EDTA) was added. […] IC50 value represents the mean of two to four independent measurements.

MRSA = assay: MIC broth microdilution, MRSA; assay type: cell-based, methicillin-resistant S. aureus; settings: Staphylococcus aureus, read-out: MIC MRSA
Method: (§1) Antimicrobial testing was carried out by the broth microdilution method in 96-well plate format following the Clinical and Laboratory Standards Institute (CLSI) guidelines and European Committee on Antimicrobial Susceptibility Testing (EUCAST) recommendations. Bacterial suspension of specific bacterial strain equivalent to 0.5 McFarland turbidity standard was diluted with cation-adjusted Mueller Hinton broth with TES (Thermo Fisher Diagnostic, Landsmeer, The Netherlands), to obtain a final inoculum of 10^5 CFU/mL. Compounds dissolved in DMSO and inoculum were mixed together and incubated for 18–20 h at 35 °C. Suspensions of Mycobacterium sp. were prepared into a tube of Middelbrook 7H9 broth supplemented with 5% OADC (Thermo Scientific, Trek Diagnostic Systems, West Sussex, UK) and incubated for at least 10 days. After incubation the minimal inhibitory concentration (MIC) values were determined by visual inspection as the lowest dilution of compounds showing no turbidity. Tetracycline was used as a positive control on every assay plate.

MRSA (QA-11.7) = assay: MIC broth microdilution, MRSA QA-11.7; assay type: cell-based, methicillin-resistant S. aureus; settings: Staphylococcus aureus, 20 h, read-out: MIC MRSA (QA-11.7)
Method: as §1

MRSA (QA-11.6) = assay: MIC broth microdilution, MRSA QA-11.6; assay type: cell-based, methicillin-resistant S. aureus; settings: Staphylococcus aureus, read-out: MIC MRSA (QA-11.6)
Method: as §1

[1] = system: E. faecalis DRK 057 (ATCC 29212); assay: MIC broth microdilution, E. faecalis; assay type: cell-based
Method: as §1

[2] = system: S. agalactiae RDK 047 (QA-990/02); assay: MIC broth microdilution, S. agalactiae; assay type: cell-based
Method: as §1

E. coli (ATCC 25922) = assay: MIC broth microdilution, E. coli ATCC 25922; assay type: cell-based
Method: as §1

E. coli (QA-11.3) = assay: MIC broth microdilution, E. coli QA-11.3; assay type: cell-based
Method: as §1

[3] = system: A. baumannii 8C6 (GES-14); assay: MIC broth microdilution, A. baumannii; assay type: cell-based
Method: as §1

[4] = system: P. aeruginosa RDK 184 (DSM 939); assay: MIC broth microdilution, P. aeruginosa; assay type: cell-based
Method: as §1

[5] = system: S. alachua RDK 030c (QA-1482/04); assay: MIC broth microdilution, S. alachua; assay type: cell-based
Method: as §1

[6] = system: C. jejuni RDK 135 (ATCC 33560); assay: MIC broth microdilution, C. jejuni; assay type: cell-based
Method: as §1

M. smegmatis = assay: MIC, M. smegmatis; assay type: cell-based, Mycobacterium smegmatis; settings: Mycolicibacterium smegmatis; read-out: MIC M. smegmatis
Method: as §1

M. avium = assay: MIC, M. avium; assay type: cell-based
Method: as §1

HUVEC = assay: Metabolic activity assessment (cytotoxicity), HUVEC; assay type: cell-based; settings: Homo sapiens, metabolic activity after 72 h treatment
Method: Cells of the HepG2 line (ATCC® HB-8065™) and HUVEC (ATCC® CRL-1730™) were cultured in Dulbecco’s Modified Eagle Medium (DMEM; Sigma-Aldrich, St. Louis, MO, USA) supplemented with 10% heat-deactivated FBS (Gibco, Grand Island, NE, USA), 2 mM L-glutamine, 100 U/mL penicillin, 100 μg/mL streptomycin (all from Sigma-Aldrich, St. Louis, MO, USA) in a humidified chamber at 37 °C and 5% CO2. The experiments were carried out on passages 7–9 for both cell lines. The tested compounds were dissolved in DMSO and further diluted in culture medium to a desired final concentration. Cells were seeded into 96-well plates at 8 × 10^4 cells/mL (100 μL/well) and incubated for 24 h to attach onto the wells. Cells were treated with 1 μM and 50 μM of each compound of interest or corresponding vehicle as control. […] The metabolic activity was assessed after 72 h treatment using the CellTiter 96 Aqueous One Solution Cell Proliferation Assay (Promega, Madison, WI, USA), in accordance with the manufacturer’s instructions. The absorbance was measured at 492 nm on an automated microplate reader BioTek Synergy HT (BioTek Instruments, Inc., Winooski, VT, USA). Data are presented as the percentage of metabolic activity of control cells stimulated with vehicle or as IC50 value (mean ± SD) from two independent experiments, each conducted in duplicate or triplicate. IC50 values were calculated by a non-linear regression model using Graph Pad Prism 7 software.

[7] = resistant to cefoxitin, gentamicin, sulfamethoxazole, tetracycline
[8] = Enterococcus faecalis, ATCC29212; read-out: MIC E. faecalis DRK 057 (ATCC 29212)
[9] = Streptococcus agalactiae; read-out: MIC S. agalactiae RDK 047 (QA-990/02)
[10] = Escherichia coli, ATCC25922; E. coli ATCC 25922; read-out: E. coli MIC (converted)
[11] = Escherichia coli, ATCC25922; read-out: MIC E. coli (ATCC 25922)
[12] = Escherichia coli, 20 h; read-out: MIC E. coli (QA-11.3)
[13] = Acinetobacter baumannii; read-out: MIC A. baumannii 8C6 (GES-14)
[14] = Pseudomonas aeruginosa, DSM939; read-out: MIC P. aeruginosa RDK 184 (DSM 939)
[15] = Salmonella; read-out: MIC S. alachua RDK 030c (QA-1482/04)
[16] = Campylobacter jejuni, ATCC33560; read-out: MIC C. jejuni RDK 135 (ATCC 33560)
[17] = Mycobacterium avium; read-out: MIC M. avium

T1 sequence (Q2FYS5 whole entry): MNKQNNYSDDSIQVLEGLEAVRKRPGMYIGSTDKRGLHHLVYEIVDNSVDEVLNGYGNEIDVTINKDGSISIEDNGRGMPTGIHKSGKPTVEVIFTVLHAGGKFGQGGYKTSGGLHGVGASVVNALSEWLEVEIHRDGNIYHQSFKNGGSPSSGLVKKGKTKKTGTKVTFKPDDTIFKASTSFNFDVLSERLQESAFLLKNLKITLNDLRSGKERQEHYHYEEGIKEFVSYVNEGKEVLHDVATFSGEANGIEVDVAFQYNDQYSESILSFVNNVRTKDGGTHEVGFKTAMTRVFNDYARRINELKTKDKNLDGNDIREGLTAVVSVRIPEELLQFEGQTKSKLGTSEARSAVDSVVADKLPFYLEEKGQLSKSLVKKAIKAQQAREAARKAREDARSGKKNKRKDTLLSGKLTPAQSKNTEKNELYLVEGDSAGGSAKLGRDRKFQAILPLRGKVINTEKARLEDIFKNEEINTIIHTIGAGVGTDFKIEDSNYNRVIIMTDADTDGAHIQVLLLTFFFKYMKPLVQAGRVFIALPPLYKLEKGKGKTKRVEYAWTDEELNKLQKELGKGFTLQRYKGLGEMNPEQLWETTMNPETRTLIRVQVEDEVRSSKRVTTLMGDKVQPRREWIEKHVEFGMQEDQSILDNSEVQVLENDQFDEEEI
T1 sequence (Q2FYS4 whole entry): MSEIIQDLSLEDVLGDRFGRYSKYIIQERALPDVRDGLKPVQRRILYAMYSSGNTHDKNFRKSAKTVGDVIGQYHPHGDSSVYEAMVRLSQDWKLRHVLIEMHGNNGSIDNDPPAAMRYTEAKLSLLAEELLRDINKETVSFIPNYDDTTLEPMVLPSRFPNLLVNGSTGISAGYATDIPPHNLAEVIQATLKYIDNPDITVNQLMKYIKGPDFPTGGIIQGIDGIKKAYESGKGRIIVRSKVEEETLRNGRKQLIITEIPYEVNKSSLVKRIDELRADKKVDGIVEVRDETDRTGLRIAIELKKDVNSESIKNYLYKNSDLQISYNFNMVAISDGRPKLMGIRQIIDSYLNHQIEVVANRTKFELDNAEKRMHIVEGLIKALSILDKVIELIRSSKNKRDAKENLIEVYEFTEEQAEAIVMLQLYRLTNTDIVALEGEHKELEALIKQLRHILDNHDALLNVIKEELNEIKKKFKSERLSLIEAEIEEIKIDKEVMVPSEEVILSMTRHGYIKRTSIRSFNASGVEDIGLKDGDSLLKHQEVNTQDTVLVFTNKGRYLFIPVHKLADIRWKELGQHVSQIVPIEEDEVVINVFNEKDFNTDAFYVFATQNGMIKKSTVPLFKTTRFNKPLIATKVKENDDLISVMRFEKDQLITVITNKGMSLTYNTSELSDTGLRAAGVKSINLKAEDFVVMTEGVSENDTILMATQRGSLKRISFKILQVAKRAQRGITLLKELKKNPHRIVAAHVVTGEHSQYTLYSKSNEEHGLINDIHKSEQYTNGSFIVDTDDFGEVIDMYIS

SMILES | IC50 (S. aureus Topo IV) [µM] | MIC (MRSA) [µg/mL] | MIC (MRSA (QA-11.7)) [µg/mL] | MIC (MRSA (QA-11.6); [7]) [µg/mL] | MIC [1, 8] [µg/mL] | MIC [2, 9] [µg/mL] | MIC (E. coli (ATCC 25922); [10]) [µM] | MIC (E. coli (ATCC 25922); [11]) [µg/mL] | MIC (E. coli (QA-11.3); [12]) [µg/mL] | MIC [3, 13] [µg/mL] | MIC [4, 14] [µg/mL] | MIC [5, 15] [µg/mL] | MIC [6, 16] [µg/mL] | MIC (M. smegmatis) [µg/mL] | MIC (M. avium; [17]) [µg/mL] | IC50 (HUVEC) [µM] | other results
COc1ccc2nccc(CCN3CCC(NCc4cnn(-c5ccc(F)cc5)c4)CC3)c2n1 [Compound 4, N-((1-(4-Fluorophenyl)-1H-pyrazol-4-yl)methyl)-1-(2-(6-methoxy-1,5-naphthyridin-4-yl)ethyl)piperidin-4-amine] | > 100 | 2 (≈ 4.34 µM) | 2 (≈ 4.34 µM) | 4 (≈ 8.69 µM) | 8 (≈ 17.4 µM) | 2 (≈ 4.34 µM) | 69.5 | 32 | 8 (≈ 17.4 µM) | 32 (≈ 69.5 µM) | > 128 | 128 (≈ 278 µM) | 128 (≈ 278 µM) | ≤ 1 | 128 (≈ 278 µM) | 9.64 ± 0.03 | 
COc1ccc2nccc(CCN3CCC(NCc4cnn(-c5ccccc5)c4)CC3)c2n1 [Compound 5, 1-(2-(6-Methoxy-1,5-naphthyridin-4-yl)ethyl)-N-((1-phenyl-1H-pyrazol-4-yl)methyl)piperidin-4-amine] | 29.6 ± 0.54 | 0.5 (≈ 1.13 µM) | 0.5 (≈ 1.13 µM) | 1 (≈ 2.26 µM) | 1 (≈ 2.26 µM) | 1 (≈ 2.26 µM) | 36.1 | 16 | 2 (≈ 4.52 µM) | 4 (≈ 9.04 µM) | > 128 | 64 (≈ 145 µM) | 16 (≈ 36.2 µM) | 0.25 (≈ 0.565 µM) | 64 (≈ 145 µM) | 10.7 ± 0.01 | LE Topo IV S. aureus (S. aureus Topo IV): 0.19
COc1ccc2nccc(CCN3CCC(NCc4c(C)nc5c(C)cccn45)CC3)c2n1 [Compound 6, N-((2,8-Dimethylimidazo[1,2-a]pyridin-3-yl)methyl)-1-(2-(6-methoxy-1,5-naphthyridin-4-yl)ethyl)piperidin-4-amine] | > 100 | > 128 | > 128 |  |  |  |  |  |  |  |  |  |  | 64 (≈ 144 µM) |  | > 50 | MIC (MRSA (QA-11.6)): > 128 µg/mL; MIC ([1]; Enterococcus faecalis, ATCC29212, read-out: MIC E. faecalis DRK 057 (ATCC 29212)): > 128 µg/mL; MIC ([2]; Streptococcus agalactiae, read-out: MIC S. agalactiae RDK 047 (QA-990/02)): 128 µg/mL (≈ 288 µM); MIC (E. coli (ATCC 25922); Escherichia coli, ATCC25922, 20 h, read-out: E. coli MIC in molar): 288 µM; MIC (E. coli (ATCC 25922); Escherichia coli, ATCC25922, read-out: MIC E. coli (ATCC 25922)): > 128 µg/mL; MIC (E. coli (QA-11.3); Escherichia coli, 20 h, read-out: MIC E. coli (QA-11.3)): 128 µg/mL (≈ 288 µM); MIC ([3]; Acinetobacter baumannii, read-out: MIC A. baumannii 8C6 (GES-14)): > 128 µg/mL; MIC ([4]; Pseudomonas aeruginosa, DSM939, read-out: MIC P. aeruginosa RDK 184 (DSM 939)): > 128 µg/mL; MIC ([5]; Salmonella, read-out: MIC S. alachua RDK 030c (QA-1482/04)): > 128 µg/mL; MIC ([6]; Campylobacter jejuni, ATCC33560, read-out: MIC C. jejuni RDK 135 (ATCC 33560)): > 128 µg/mL; MIC (M. avium; Mycobacterium avium, read-out: MIC M. avium): > 128 µg/mL
COc1ccc2nccc(CCN3CCC(NCc4cnn(-c5ccccc5)n4)CC3)c2n1 [Compound 8, 1-(2-(6-Methoxy-1,5-naphthyridin-4-yl)ethyl)-N-((2-phenyl-2H-1,2,3-triazol-4-yl)methyl)piperidin-4-amine] | > 100 | 0.5 (≈ 1.13 µM) | 0.5 (≈ 1.13 µM) | 0.5 (≈ 1.13 µM) | 1 (≈ 2.25 µM) | 0.5 (≈ 1.13 µM) | 144 | 64 | 32 (≈ 72.1 µM) | 32 (≈ 72.1 µM) | > 128 | > 128 | 4 (≈ 9.02 µM) | 0.5 (≈ 1.13 µM) | 32 (≈ 72.1 µM) | 39.4 ± 5.47 | 
COc1ccc2nccc(CCN3CCC(NCc4cnn(C(C)C)c4)CC3)c2n1 [Compound 9, N-((1-Isopropyl-1H-pyrazol-4-yl)methyl)-1-(2-(6-methoxy-1,5-naphthyridin-4-yl)ethyl)piperidin-4-amine] | 40.38 ± 0.09 | 0.25 (≈ 0.612 µM) | 1 (≈ 2.45 µM) | 1 (≈ 2.45 µM) | 1 (≈ 2.45 µM) | 0.5 (≈ 1.22 µM) | 19.6 | 8 | 4 (≈ 9.79 µM) | 2 (≈ 4.9 µM) | > 128 | 64 (≈ 157 µM) | 0.5 (≈ 1.22 µM) | 0.25 (≈ 0.612 µM) | 128 (≈ 313 µM) | > 50 | LE Topo IV S. aureus (S. aureus Topo IV): 0.20
C=CCn1cc(CNC2CCN(CCc3ccnc4ccc(OC)nc34)CC2)cn1 [Compound 10, N-((1-Allyl-1H-pyrazol-4-yl)methyl)-1-(2-(6-methoxy-1,5-naphthyridin-4-yl)ethyl)piperidin-4-amine] | > 100 | 2 (≈ 4.92 µM) | 4 (≈ 9.84 µM) | 4 (≈ 9.84 µM) | 8 (≈ 19.7 µM) | 4 (≈ 9.84 µM) | 39.4 | 16 | 8 (≈ 19.7 µM) | 32 (≈ 78.7 µM) | > 128 | 128 (≈ 315 µM) | 8 (≈ 19.7 µM) | ≤ 1 | > 128 | > 50 | 
COc1ccc2nccc(CCN3CCC(NCc4ccc(CO)cc4)CC3)c2n1 [Compound 16] | > 100 | 4 (≈ 9.84 µM) | 4 (≈ 9.84 µM) | 4 (≈ 9.84 µM) | 8 (≈ 19.7 µM) | 8 (≈ 19.7 µM) | 315 | 128 | 32 (≈ 78.7 µM) | 128 (≈ 315 µM) | > 128 | > 128 | 32 (≈ 78.7 µM) | 32 (≈ 78.7 µM) | > 128 |  | IC50 (HUVEC; 72 h): > 50 µM
